In publication PMC7767381, “Exploring the Anti-Cancer Mechanism of Novel 3,4′-Substituted Diaryl Guanidinium Derivatives” (Pharmaceuticals, 2020):

Assays:
[1] = tested on: MCF10A cells; experiment: alamarBlue toxicity in non-tumorigenic MCF10A cells; assay type: cell-based, human
Excerpt: Considering the promising cytotoxicity results obtained with the cancer cell lines, we also evaluated the potential toxicity of the most efficient derivative (compound 4) in the non-cancerous cell line MCF10A (human mammary epithelial cell line).
Cells were counted and seeded in 96-well plates at a density of 2 × 10^5 cells/mL for HL-60, 2.5 × 10^4 cells/mL for MCF-7, MCF10A and HeLa, 1 × 10^5 cells/mL for HCT116 and HKH-2, all of them in their respective media. The 96-well plates were then treated with a 1:100 dilution of stock concentrations of drugs or EtOH (1% v/v)/DMSO (0.1% v/v) as vehicle control in triplicate. Three blank wells containing 200 µL RPMI with no cells were also set-up as blanks. […] The plates were incubated in darkness at 37 °C for 4–5 h using a Molecular Devices microplate reader, the fluorescence (F) was then read at an excitation wavelength of 544 nm and an emission wavelength of 590 nm. Cell viability was then determined by subtracting the mean blank fluorescence (Fb) from the treated sample fluorescence (Fs) and expressing this as a percentage of the fluorescence of the blanked vehicle control (Fc). […] The results were then plotted as a nonlinear regression, sigmoidal dose-response curves on Prism, from which the IC50 value for each drug was determined. […]
Figure S11. Scatter correlation found between the calculated logP and the HL -60 cytotoxic […]

[2] = tested on: HL-60 cells; experiment: alamarBlue cell viability assay, HL-60; assay type: cell-based; settings: Homo sapiens, HL-60, 72 h, alamarBlue, 72 h; read-out: HL-60 IC50 ± SEM
Excerpt: Cell viability and proliferation assays were used to evaluate the in vitro cytotoxicity of all synthesised compounds in a variety of different cancer cell lines using the alamarBlue® viability assay and the results are presented in Table 1 and Table 2. The sensitivity of cancer cells to drugs can often be compromised by PIK3CA, Ras and BRAF mutations. To determine whether such mutations are critical to the efficacy of our new compounds we tested them in a range of cancerous cell lines expressing different mutations. Firstly, we used the HL-60 (human promyelocytic leukaemia, NRas mutated) cell line for general cytotoxicity screening of all compounds. […] Lastly, toxicity against MCF-10A, which is a non-tumorigenic epithelial cell line, was also assessed for one of the most promising compounds (4). The graphs representing the viability results with the HL-60, MCF-7, HeLa, HCT-116, and HKH-2 cancer cell lines for compound 1 and derivatives 2, 3, and 4 are shown in Figures S7–S10 (ESI).
Cells were counted and seeded in 96-well plates at a density of 2 × 10^5 cells/mL for HL-60, 2.5 × 10^4 cells/mL for MCF-7, MCF10A and HeLa, 1 × 10^5 cells/mL for HCT116 and HKH-2, all of them in their respective media. The 96-well plates were then treated with a 1:100 dilution of stock concentrations of drugs or EtOH (1% v/v)/DMSO (0.1% v/v) as vehicle control in triplicate. Three blank wells containing 200 µL RPMI with no cells were also set-up as blanks. After a 72 h incubation, 20 µL of alamarBlue was added to each well. The plates were incubated in darkness at 37 °C for 4–5 h using a Molecular Devices microplate reader, the fluorescence (F) was then read at an excitation wavelength of 544 nm and an emission wavelength of 590 nm. Cell viability was then determined by subtracting the mean blank fluorescence (Fb) from the treated sample fluorescence (Fs) and expressing this as a percentage of the fluorescence of the blanked vehicle control (Fc). […] The results were then plotted as a nonlinear regression, sigmoidal dose-response curves on Prism, from which the IC50 value for each drug was determined. […]
Pharmacy, TCD. It was maintained in Roswell Park Memorial Institute (RPMI) 1640 medium with stable glutamate (GlutaMax I) supplemented with 10% (v/v) fetal bovine serum (FBS), 1% (v/v) penicillin/ streptomycin (pen-strep) and 2 mM L-glutamine. […]
4.4. AlamarBlue ® Cell Viability Assay
Cells were counted and seeded in 96 well plates at a density of 2 × 10^5 cells/mL for HL-60, 2.5× 10^4 cells/mL for MCF-7, MCF10A and HeLa, 1 × 10^5 cells/mL for HCT116 and HKH-2, all of them in their respective media. The 96 well plates were then treated with a 1:100 dilution of stock concentrations of drugs or EtOH (1% v/v)/DMSO (0.1% v/v) as vehicle control in triplicate.
Three blank wells containing 200 µL media with no cells were also set-up as blanks. After a 72 h incubation, 20 µL of AlamarBlue was added to each well. The plates were incubated in darkness at 37 °C for 4-5 h. Using a Molecular Devices microplate reader, the fluorescence (F) was then read at an excitation wavelength of 544 nm and an emission wavelength of 590 nm.
Cell viability was then determined by subtracting the mean blank fluorescence (Fb) from the treated sample fluorescence (Fs) and expressing this as a percentage of the fluorescence of the blanked vehicle control (Fc). […] The results were […]
then plotted as a nonlinear regression, sigmoidal dose-response curves on Prism, from which the IC50 value for each drug was determined.
Fs − Fb x 100 = % Cell Viability
60 cell line in a dose-dependent manner.
(1 picture or pasted object on this page, not shown here)

Compound | toxicity towards MCF10A ([1]; 100 μM) | effect on MCF10A cell viability ([1]; 10 and 1 μM) | IC50 [2] [µM]
Cl.N=C(N)Nc1ccc(Oc2cccc(Nc3ccc(Cl)c(C(F)(F)F)c3)c2)cn1 [Compound 4, 1-(5-(3-((4-Chloro-3-(trifluoromethyl)phenyl)amino)phenoxy)pyridin-2-yl)guanidine hydrochloride] | shows toxicity | does not appear to affect in any way cell viability | 3.48 ± 0.28
Cl.Cl.N=C(N)Nc1ccc(Oc2cccc(NC(=N)Nc3ccc(Cl)c(C(F)(F)F)c3)c2)cn1 [Compound 2, 1-(4-Chloro-3-(trifluoromethyl)phenyl)-3-(3-((6-guanidinopyridin-3-yl)oxy)phenyl) guanidine dihydrochloride] |  |  | 2.36 ± 0.14
